Experimental findings from patent publication US8940516B2, “Method for the synthesis of chiral cyanohydrins via a hydroxynitrile lyase from brassicaceae” (Evocatal GmbH, priority 2006, dated 2015) are described below.

Substitutions are numbered along the chain they refer to. Names may count otherwise. “Also recorded” adds a separate entry of the source. Like-named read-outs stand apart in the source and are kept apart here.

Assay type in all cases: biochemical
In series [1] the target is T1, AtHNL (Arabidopsis thaliana, UniProt Q9LFT6).
T1 construct: made in house; host or cells: E. coli BL21(DE3), plasmid pAtHNL (pET28a, NcoI/XhoI)
T1 sequence (Q9LFT6 1-258): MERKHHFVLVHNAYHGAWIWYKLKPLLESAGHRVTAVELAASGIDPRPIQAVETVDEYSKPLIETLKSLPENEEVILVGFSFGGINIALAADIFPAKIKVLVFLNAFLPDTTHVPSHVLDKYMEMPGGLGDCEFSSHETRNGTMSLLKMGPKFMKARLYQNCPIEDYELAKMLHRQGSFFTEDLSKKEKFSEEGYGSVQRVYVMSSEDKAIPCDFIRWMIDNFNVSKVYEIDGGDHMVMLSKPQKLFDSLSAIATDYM

The target in series [2] is T1, AtHNL. Particulars: pH 5.
In series [3] the target is T1, AtHNL. In words: Cleavage of mandelonitrile, determination of liberated benzaldehyde (cell test). Particulars: cleavage reaction of cyanohydrin by AtHNL, citrate-phosphate buffer pH 5. As for the experimental part:
Ia) Cleavage of Mandelonitrile(=Benzaldehyde Cyanohydrin), Determination of Liberated Benzaldehyde (Cell Test):
The protocol employed was based on the test described by Bauer et al in 1999 and was only modified slightly. 700 μl of citrate-phosphate buffer, pH 5 (48.5 mL 0.1M citric acid, 51.5 mL 0.2 M dipotassium hydrogen phosphate, qsp 100 ml water) was mixed with 100 μl of enzyme sample in a quartz glass cell and the reaction was started with 200 μl of mandelonitrile solution (60 mM in citrate-phosphate buffer, pH 3.5 (1.82 mL 0.1 M citric acid, 1.06 mL 0.1 M disodium hydrogen phosphate, qsp 100 mL water). The increase in the extinction at 280 nm was monitored for 2 min. It was proportional to the benzaldehyde concentration in the sample. Self-degradation of the cyanohydrin was determined in a control sample without enzyme and subtracted from the values measured for the enzyme sample. In order to determine the remaining activity in the course of the stability tests described in Example 5d, a slightly altered procedure was used: 870 μl of citrate buffer (50 mM, pH 4) was supplemented with 30 μl of enzyme sample, the reaction was started by adding 100 μl of mandelonitrile (60 mM in 50 mM of citrate buffer, pH 2) and monitored for 2 minutes at 280 nm. […] The enzyme activity is, however, much lower with this procedure.

Series [4] is described as follows: HNL activity test of cloned and expressed Arabidopsis proteins resembling MeHNL. Particulars: cloned, expressed heterologously in E. coli; listed as At5g10300. An excerpt:
The Arabidopsis thaliana plant (mouse-ear cress) is a model organism (accessible genome, short generation period) and thus has been comprehensively investigated. The genome has been completely sequenced and recorded in sequence databases. Examples of such databases are, for example, the “Genbank” as a collection of all published sequences, or TAIR as a database restricted to a single organism (in this case Arabidopsis). Because of the great strides made in molecular biology, many new sequences are being input into the appropriate databases than can be individually assessed and described. Thus, until now genes which have been identified as true genes but which have not been further investigated have automatically been ascribed types by appropriate computer algorithms because of their similarities to known sequences. Whether the function stated in this description is true, however, must be individually ascertained for each protein. […] The increase in the extinction at 280 nm was monitored for 2 min. […] Self-degradation of the cyanohydrin was determined in a control sample without enzyme and subtracted from the values measured for the enzyme sample. […]

Series [5] in a line: Activity of AtHNL preparations from fed batch fermentation.
Series [6] is described as follows: Demonstration of stereoselectivity (chiral gas chromatography and cleavage test with enantiomerically pure benzaldehyde cyanohydrin).
The nature of series [7]: Point mutations in SEQ ID NO: 1 (AtHNL variants).
[8] abbreviates: after Q-Sepharose, desalting and lyophilization.

In the case of `CCC(C)=O` [2-butanone], on AtHNL [1], the “ee (R) (%)” value stood at 0%. For the same molecule, at AtHNL [1] (pH 4), the “Transformation (%)” value was greater than 95%.
As for `CCCCCC(C)=O` [2-heptanone], on AtHNL [1], the “ee (R) (%)” value was determined as 9%. Moreover, the “Transformation (%)” value at AtHNL [1] (pH 4) was determined as 9%.
Turning to `CCCCC(C)=O` [2-hexanone], the “ee (R) (%)” value on AtHNL [1] is listed as 0%.
For `CCCCCCC(C)=O` [2-octanone], the “Transformation (%)” value at AtHNL [1] (pH 4) turned out to be 0%.
As for `CCCC(C)=O` [2-pentanone], the “ee (R) (%)” value on AtHNL [1] was determined as 0%. The “Transformation (%)” value at AtHNL [1] (pH 4) is given as greater than 95%.
Consider `O=Cc1cccc(Oc2ccccc2)c1` [3-phenoxybenzaldehyde], for which the “ee (R) (%)” value at AtHNL [1] stood at 78%. Besides, at AtHNL [1] (pH 4), the “Transformation (%)” value is reported as 73%.
For `O=Cc1ccc(Cl)cc1` [4-chlorobenzaldehyde], the “ee (R) (%)” value on AtHNL [1] is listed as 95%. Also, at AtHNL [1] (pH 4), the “Transformation (%)” value was 98%.
For `COc1ccc(C=O)cc1` [4-methoxybenzaldehyde], the “Transformation (%)” value at AtHNL [1] (pH 4) is listed as 22.6%.
On to `CC(O)C#N` (centres unmarked) [Acetaldehyde cyanohydrin], for which the “Specify activity (U/mg), HCN-Test (see Ib above)” value on AtHNL [2] is less than 0.05 U/mg.
With `N#CC(O)c1ccccc1` (centres unmarked) [Benzaldehyde cyanohydrin], the “Specify activity (U/mg), Benzaldehyde Test (see Ia above)” value on AtHNL [3] turned out to be 12.5 U/mg.
As to `O=Cc1ccccc1` [Benzaldehyde], at AtHNL [1] (pH 4), the “Transformation (%)” value is listed as greater than 99.9%.
Take `CC(=O)CCc1ccccc1` [Benzyl acetone]: on AtHNL [1], the “ee (R) (%)” value was found to be 40%. Moreover, the “Transformation (%)” value on AtHNL [1] (pH 4) was 9%.
With `CCCCCCC=O` [Heptanal], the “ee (R) (%)” value at AtHNL [1] was greater than 80%. For the same molecule, on AtHNL [1] (pH 4), the “Transformation (%)” value is listed as greater than 99.9%.
As for `CCCCCC=O` [Hexanal], the “Transformation (%)” value at AtHNL [1] (pH 4) is 98%.
The same measure, in the same setting: the value for `CCCCCCCC=O` [Octanal] was 89%.
Consider `O=CCc1ccccc1` [Phenylacetaldehyde], for which the “ee (R) (%)” value at AtHNL [1] turned out to be 71%. In addition, the “Transformation (%)” value on AtHNL [1] (pH 4) amounted to 90%.
`CCC(O)C#N` (centres unmarked) [Propionaldehyde cyanohydrin]: at AtHNL [2], the “Specify activity (U/mg), HCN-Test (see Ib above)” value is on record as less than 0.05 U/mg.
Consider `C=CCc1ccccc1` [compound 17], for which, on AtHNL [1], the “Transformation (%)” value was determined as 97% and the “ee (R) (%)” value turned out to be 96%.
As to `O=CCCc1ccccc1` [compound 18], at AtHNL [1], the “Transformation (%)” value is 99% and the “ee (R) (%)” value is 68%.
On to `O=Cc1cccs1` [compound 19], for which the “Transformation (%)” value on AtHNL [1] is listed as 68%.
Take `CCCCCC=O` [compound 20]: at AtHNL [1], the “Transformation (%)” value came to 99% and the “ee (R) (%)” value is 98%.
In the case of `CCCCCCCCCC=O` [compound 21], at AtHNL [1], the “Transformation (%)” value is 56% and the “ee (R) (%)” value was greater than 95%.
With `CCC/C=C/C=O` [compound 22], the “Transformation (%)” value at AtHNL [1] was determined as 53%.
For `CC(=O)CCC=C(C)C` [compound 23], on AtHNL [1], the “Transformation (%)” value came to 0%.
Regarding `CCCCC(C)=O` [compound 24], on AtHNL [1], the “Transformation (%)” value worked out at 48% and the “ee (R) (%)” value was 95%.
For the molecule `CCCCCCCCC(C)=O` [compound 25], on AtHNL [1], the “Transformation (%)” value worked out at 2%.
Still for that read-out and setting: the value for `O=C1CCCCC1` [compound 26] was 94%.
On the same count and under the same terms, as for `CC(=O)c1ccccc1` [compound 27], the figure is 7%.
Take `CC(=O)c1ccccc1F` [compound 28]: on AtHNL [1], the “Transformation (%)” value is 8% and the “ee (R) (%)” value is reported as 95%.
Regarding `CC(=O)CCc1ccccc1` [compound 29], the “Transformation (%)” value on AtHNL [1] came to 1%.

B1: AtHNL: hydroxynitrile lyase from Arabidopsis thaliana, polypeptide of the invention, SEQ ID NO: 1 (protein, listed as Arabidopsis thaliana)
chain: T1 sequence (Q9LFT6 1-258)
B1: the “HNL activity (Remarks/misc)” value in series [4] is “high activity; also recorded: HNL activity (a poly-”. Also, in series [5] (setting [8]), the activity per lyophilisate is reported as 2.5 U/mg of lyophilisate and the specific activity result was “approximately 40 U/mg protein”. Further, in series [5] (unrefined extract), the specific activity is reported as 13.3 U/mg and the volumetric activity result is given as “approx 800 U/ml”. Besides, the stereoselectivity result in series [6] is listed as “Only the (R) enantiomer formed or was transformed”.

B2: L129W: AtHNL (SEQ ID NO: 1) with leucine 129 exchanged for tryptophan (protein, listed as Arabidopsis thaliana)
chain: T1 sequence (Q9LFT6 1-258) with L129W
As to B2, the “effect of the point mutation on substrate spectrum / enantioselectivity” value in series [7] is on record as “reversal of enantioselectivity”.

B3: S81A: AtHNL (SEQ ID NO: 1) with point mutation S81A, catalytic triad residue exchanged (protein, listed as Arabidopsis thaliana)
chain: T1 sequence (Q9LFT6 1-258) with S81A
B3: the “activity of the polypeptide after exchange of catalytic triad residues” value in series [7] was “no longer exhibited any activity”.

B4: D208N: AtHNL (SEQ ID NO: 1) with point mutation D208N, catalytic triad residue exchanged (protein, listed as Arabidopsis thaliana)
chain: T1 sequence (Q9LFT6 1-258) with D208N
Regarding B4, the “activity of the polypeptide after exchange of catalytic triad residues” value in series [7] was “no longer exhibited any activity”.

B5: Y14C: AtHNL (SEQ ID NO: 1) with tyrosine 14 exchanged for cysteine (protein, listed as Arabidopsis thaliana)
chain: T1 sequence (Q9LFT6 1-258) with Y14C
On to B5, for which the “effect of the point mutation on substrate spectrum / enantioselectivity” value in series [7] is “reversal of enantioselectivity”.

B6: N12T: AtHNL (SEQ ID NO: 1) with asparagine 12 exchanged for threonine, preferably as double mutation with Y14C (protein, listed as Arabidopsis thaliana)
chain: T1 sequence (Q9LFT6 1-258) with N12T
For B6, the “effect of the point mutation on substrate spectrum / enantioselectivity” value in series [7] is “broadening of substrate spectrum to ketones”.

B7: H236F: AtHNL (SEQ ID NO: 1) with point mutation H236F, catalytic triad residue exchanged (protein, listed as Arabidopsis thaliana)
chain: T1 sequence (Q9LFT6 1-258) with H236F
B7: the “activity of the polypeptide after exchange of catalytic triad residues” value in series [7] is recorded as “no longer exhibited any activity”.
